Measured values taken from US20260077043A1, “COMBINATION THERAPY” (LEAP THERAPEUTICS, INC., priority 2022, published 2026).

Experiments:
[1] = tested on: HCT116 human colorectal carcinoma cells without the PIK3CA H1047R mutation; test: HCT116 PIK3CA+/− subcutaneous xenograft, tumor growth inhibition; format: in vivo, BALB/c scid mice; conditions: Day 52 (Treatment Day 36), compared to the IgG4 control; DKN-01 5 mg/kg IP twice weekly, BYL719 25 mg/kg PO QD
Text: (§1) A study was initiated to evaluate growth of a human colorectal cancer cell line, HCT116, with and without the PI3KCA H1047R mutation in mice treated with DKN-01, the PI3KCA inhibitor BYL719 (Alpelisib), or the combination. Female BALB/c scid mice were inoculated subcutaneously with HCT116 human colon carcinoma cells with or without the H1047R mutation on Day 0. On Day 17, when tumors volumes had reached 50-75 mm3, animals were randomized into treatment groups and dosing was initiated.
(§2) Female BALB/c scid mice (10 per group) were inoculated subcutaneously in the right flank with 10×10^6 HCT116 human colorectal carcinoma cells on Day 0. Human IgG4 control (10 mg/kg) and DKN-01 (5 mg/kg) were administered intraperitoneally (IP) twice weekly. BYL719 (25 mg/kg) was administered orally (PO) every day (QD) for the duration of the study. Tumor measurements were performed every 3-4 days with calipers and volume (V) was calculated using the following formula: V=½(length [mm]×width [mm]^2). Data are shown as mean tumor volumes (MTV)+SEM. #, p<0.05. Percent TGI =[(MTV Control)−(MTV Treated)]/(MTV Control). Comparisons between groups at study termination were performed using a one-way repeated measures ANOVA with Tukey's multiple comparisons test.

[2] = tested on: HCT116 human colorectal carcinoma cells with H1047R mutation; test: HCT116 H1047/− subcutaneous xenograft, tumor growth inhibition; format: in vivo, BALB/c scid mice; conditions: Day 48 (Treatment Day 36), compared to the IgG4 control; DKN-01 5 mg/kg IP twice weekly, BYL719 25 mg/kg PO QD
Text: as §1, §2

SMILES: Cc1nc(NC(=O)N2CCC[C@H]2C(N)=O)sc1-c1ccnc(C(C)(C)C(F)(F)F)c1 [BYL719, Alpelisib]
- Tumor Growth Inhibition (TGI) [1]: 50%
- Tumor Growth Inhibition (TGI) [2]: 56%
